Reference: patent US20150247149A1, “Detecting and Treating Liver Damage” (The Regents of the University of California, priority 2012, published 2015)

What was measured:
HUVECs [1] = assay: Internalization of microparticles into endothelial cells; format: cell-based, human; conditions: HUVECs pre-treated with 10 mM MβCD 15 min or 2.5 μg/mL cav-1 nAb 30 min at 37° C., then MPs 6 h
Experimental: Internalization of hepatocyte-derived MPs into HUVECs and the role of VNN1 and lipid raft were evaluated by flow cytometry, indirect immunofluorescence and electron microscopy. To investigate the MPs internalization into HUVECs, by flow cytometry, MPs were stained with 1 μM of Calcein, AM (MPCalcein) (BD Biosciences), a fluorescent dye with an emission wavelength of 515 nm, for 1 h in the dark at 37° C. MPs were centrifuged twice with PBS for 30 minutes at 35,000 rpm and resuspended in 500 μL of EGM medium. To block MPs internalization, MPsCalcein were incubated with or without 4 μg/mL of rabbit polyclonal anti-VNN1 antibody (S3055; Epitomics, Burlingame, Calif., USA) for 30 minutes at RT. A rabbit anti-GAPDH antibody (Abcam, Cambridge, Mass., USA) was used as a control. […] Cells were trypsinized and FITC positive HUVECs were detected by BD LSRII Flow Cytometer System (BD) and counted. […]
The MPs suspension was incubated in the dark for 4 minutes, and then 2 mL of 1% BSA was added and kept for 1 minute to stop the reaction. […] HUVECs (4×10^3 cell per well) were seeded onto a 24-well plate and depletion of cholesterol was assessed by a treatment with 10 mM of Methyl-β-cyclodextrin (MβCD) in serum-free EBM-2 medium for 15 minutes at 37° C., followed by wash with fresh medium. […]

HUVECs [2] = assay: HUVEC migration (Boyden's chamber chemotaxis, wound healing); format: cell-based, human
Experimental: In vitro migration studies have been performed by using human umbilical cell endothelial cells (HUVECs). Wound healing assay was performed to analyze chemokinesis (non-oriented migration) by using collagen-coated 6-well culture plate, where a silicon elastomer (PDMS) strip was placed vertically to the bottom of every well to create the artificial wound. HUVECs were plated and grown until reaching the complete confluence. HUVECs were treated with EBM-2 supplemented with 100 ng/mL of VEGF (Peprotech, Rocky Hill, N.J., USA), hepatocytes-derived MPs, MP-free supernatant or supernatant collected after 24 hours of treatment with FFAs. The strips were removed carefully and migration of cells was detected by a confocal microscope, capturing one picture per field every 10 minutes for 48 hours. Mitomycin (1 μg/ml) was used to inhibit cell proliferation during wound healing assay. Data were analyzed by using Wimscratch software (Wimasis, Munich, Germany) in order to get the total cell-covered area (pixel). Boyden's chamber assay was performed to analyze chemotaxis (oriented migration) by using cell culture inserts 8 μm pore size (Millipore, Billerica, Mass., USA) and 24-well plate. Each well was filled with 500 μl of serum free EBM-2 media in presence or absence of the following chemoattractants: 100 ng/mL VEGF; hepatocytes-derived MPs; MP-free supernatant or conditioned supernatant. The inserts were placed on top of each well and 150 μl of cell suspension (5×10^4 cells) was added. Plates were incubated overnight at 37° C., and then the filters were removed and stained with Vectashield mounting medium with 4′,6-diamino-2-phenylindole (DAPI) (Vector Labs, Burlingame, Calif., USA).
Migrated cells were detected with a fluorescence microscope and number per field of their nuclei was counted. For the ex vivo studies, PFP isolated from different groups of mice (chow, HF/HCarb, MCD fed mice and mice injected with control siRNA, VNN1 siRNA or PBS as vehicle) were ultracentrifuged at 100,000 g for 1 h at 10° C. to pellet the blood MPs.

HUVECs [3] = assay: HUVEC tube formation assay; format: cell-based, human
Experimental: HUVECs (0.5-1×10^5 cells per well) were seeded onto a coated 24-well plate culture dishes with 200 μl/cm2 (thick gel method) of Matrigel (BD, Franklin Lakes, N.J., USA) and cultured in EBM-2 basal medium supplemented with 1.1% of streptomycin and penicillin in the presence of 100 ng/mL of VEGF (Peprotech, Rocky Hill, N.J., USA), hepatocytes-derived MPs, MP-free supernatant or conditioned supernatant collected after 24 hours of treatment with FFAs. In selective studies, a specific inhibitor for RhoA-ROCK (Y27632, 10 μM) was used in association with MPs in the treatment of endothelial cells. For the ex vivo studies, PFP isolated from different groups of mice (chow, HF/HCarb, MCD fed mice and mice injected with control RNA, VNN1 siRNA or PBS as vehicle) were ultracentrifuged at 100,000 g for 1 h at 10° C. to pellet the blood MPs. HUVECs were treated with MPs (or blood pure MPs) and incubated for 5 h at 37° C. Tube formation was investigated by using an inverted microscope at 4× magnification and images were captured. Tube formation image analysis was assessed by using Wimtube software (Wimasis, Munich, Germany) and the values referred to total tube length (pixel) were used for statistical and data analysis.

[4] = test system: HepG2 and primary rat hepatocytes; assay: Release of Annexin V-positive MPs from hepatocytes (flow cytometry); format: cell-based, human (HepG2); rat (primary hepatocytes); conditions: palmitic acid-treated hepatocytes co-incubated with caspase 3 inhibitor (FIGS. 2E, 2G)
Experimental: For microparticles (MPs) isolation, HepG2 and primary rat hepatocytes were seeded onto a 100 mm dish and cultured until reaching 80-85% of confluence. Cells were incubated with 0.25 mM of palmitic, stearic, oleic or linoleic acid (FFA) in serum-free DMEM, supplemented with 1.1% penicillin and streptomycin, 1% endotoxin-free bovine serum albumin (BSA), for up to 24 h. […] The uptake of FFAs from hepatocytes was evaluated by Oil red-O staining kit (Cayman, Ann Arbor, Mich., USA) according to the manufacturer instruction. To determine the effect of caspase 3 activity, hepatocytes were treated with a selective caspase 3 inhibitor, Ac-DEVD-CHO (BD Pharmingen, Franklin Lakes, N.J., US). Control cells were incubated with the same serum-free media in association to the vehicle that was used to dissolve the FFAs. After 24 h, the supernatant were collected and centrifuged twice at 3,000 rpm for 15 minutes to remove cell debris and aggregates. The supernatant was then transferred to new tubes and ultracentrifuged at 100,000 g for 90 minutes at 10° C., to avoid contamination of exosomes.
The supernatant was collected in new tubes and used as a MP-free control and the pelleted MPs were resuspended in 200 μl of PBS for flow cytometry or in 500 μl of EGM-2 growth medium for subsequent in vitro studies. The concentration of microparticles μg/mL was determined by the BCA protein assay and different concentrations of MPs (50, 125, 250 and 500 μg/mL) were used to perform the dose-dependent angiogenesis in vitro assays. For selected purposes, in particular for the characterization analyses, crude MPs were purified by 10-70% sucrose gradient ultracentrifugation at 150,000 g for 18 h at 10° C., collected as fractions in new tubes. […]
Flow cytometry analyses for microparticles (or endothelial cells) detection were performed by using BD LSRII Flow Cytometer System (BD Biosciences, San Jose, Calif., USA) and the data were analyzed using FlowJo software (TreeStar Inc., Ashland, Oreg., USA). […]

[5] = HUVECs treated with MPs and Y27632, 10 μM

With Methyl-β-cyclodextrin the “MPs internalization into the endothelial cells” value (HUVECs [1]) was “marked reduction”.
In the case of CCCCCCCCCCCCCCCCCC(=O)O [stearic acid], the “endothelial cell oriented (chemotaxis) and non-oriented migration induced by cell-free supernatants of FFA-treated hepatocytes” value (HUVECs [2]; supernatants from hepatocytes incubated with FFA up to 24 h, VEGF-A positive control) was “marked increase” and the “tube formation induced by cell-free supernatants of FFA-treated hepatocytes” value (HUVECs [3]; supernatants from HepG2/primary rat hepatocytes incubated with FFA up to 24 h, VEGF-A positive control) was “marked increase”.
For “Ac-DEVD-CHO [selective caspase 3 inhibitor]”, the “formation and release of MPs” value [4] was “drastically reduced”.
With C[C@@H](N)[C@H]1CC[C@H](C(=O)Nc2ccncc2)CC1 [Y-27632] the “chemotaxis (MP-mediated)” value (HUVECs [2]; [5]) was “significant decrease” and the “tube formation (MP-mediated)” value (HUVECs [3]; [5]) was “significant decrease”.
